Structures can show the parent of a compound that is named as a salt.
Molecular target: T1, recombinant JAK2 (Homo sapiens, UniProt O60674)
T1 construct: purchased Upstate Cell Signaling Solutions
Test: IC50 value determinations for Jak2 kinase, luminescence-based kinase assay (Kinase-Glo)
Format: biochemical

T1 sequence (O60674 808-1132 limits assumed): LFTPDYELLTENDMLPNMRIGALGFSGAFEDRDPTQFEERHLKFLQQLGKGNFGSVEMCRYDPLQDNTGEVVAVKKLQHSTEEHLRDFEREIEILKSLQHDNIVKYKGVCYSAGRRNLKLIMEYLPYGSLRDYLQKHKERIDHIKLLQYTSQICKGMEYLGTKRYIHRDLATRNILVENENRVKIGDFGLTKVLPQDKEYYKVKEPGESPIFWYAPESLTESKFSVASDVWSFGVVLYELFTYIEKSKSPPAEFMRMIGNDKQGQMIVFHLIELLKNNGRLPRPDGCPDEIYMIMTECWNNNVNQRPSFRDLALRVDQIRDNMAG

| IC50 (Table 1) [µM] | SMILES | further results |
| --- | --- | --- |
| 0.0186 | Cc1cnc(Nc2ccc(Cn3cccn3)cc2)nc1Nc1cccc(S(=O)(=O)NC(C)(C)C)c1 [N-tert-Butyl-3-[5-methyl-2-(4-pyrazol-1-ylmethyl-phenylamino)-pyrimidin-4-ylamino]-benzenesulfonamide] |  |
| 0.0121 | Cc1cnc(Nc2ccc(N3CCOCC3)cc2)nc1Nc1cccc(S(=O)(=O)NC(C)(C)C)c1 [N-tert-Butyl-3-[5-methyl-2-(4-morpholin-4-yl-phenylamino)-pyrimidin-4-ylamino]-benzenesulfonamide] |  |
| 0.215 | Cc1cnc(Nc2ccc(N3CCN(C)CC3)cc2)nc1Nc1cccc(S(C)(=O)=O)c1 [5-methyl-N2-(4-(4-methylpiperazin-1-yl)phenyl)-N4-(3-(methylsulfonyl)phenyl) pyrimidine-2,4-diamine] |  |
| 0.0357 | Cc1ccc(Nc2nc(Nc3ccc(OCCN4CCCC4)cc3)ncc2C)cc1 [N2-(4-(2-(pyrrolidin-1-yl)ethoxy)phenyl)-5-methyl-N4-p-tolylpyrimidine-2,4-diamine Hydrochloride] |  |
| 0.0372 | Cc1cc(C)cc(Nc2nc(Nc3ccc(OC4CCNCC4)cc3)ncc2C)c1 [5-methyl-N4-(3,5-dimethylphenyl)-N2-(4-(piperidin-4-yloxy)phenyl)pyrimidine-2,4-diamine hydrochloride] |  |
| 0.0603 | CCN(CC)S(=O)(=O)c1cccc(Nc2nc(Nc3ccc(N4CCN(C)CC4)cc3)ncc2C)c1 [N,N-Diethyl-3-{5-methyl-2-(4-(4-methyl-piperazin-1-yl)-phenylamino]-pyrimidin-4-ylamino}-benzenesulfonamide] |  |
| 0.0209 | Cc1cnc(Nc2ccc(C3CCNCC3)cc2)nc1Nc1cccc(C(C)(C)C)c1 [N4-(3-tert-butylphenyl)-5-methyl-N2-(4-(piperidin-4-yl)phenyl)pyrimidine-2,4-diamine Hydrochloride] |  |
| 0.113 | Cc1cnc(Nc2ccc(OC3CCNCC3)cc2)nc1Nc1cccc(C(=O)N2CCCC2)c1 [(3-{5-Methyl-2-[4-(piperidin-4-yloxy)-phenylamino]-pyrimidin-4-ylamino}-phenyl)-pyrrolidin-1-yl-methanone] |  |
| 0.0354 | Cc1cnc(Nc2ccc(Cn3cncn3)cc2)nc1Nc1cccc(S(=O)(=O)NC(C)(C)C)c1 [N-tert-Butyl-3-[5-methyl-2-(4-[1,2,4]triazol-1-ylmethyl-phenylamino)-pyrimidin-4-ylamino]-benzenesulfonamide] |  |
| 0.0124 | Cc1cnc(Nc2ccc(OCCN3CCCC3)cc2)nc1Nc1csc2ccccc12 [N4-Benzo[b]thiophen-3-yl-5-methyl-N2-[4-(2-pyrrolidin-1-yl-ethoxy)-phenyl]-pyrimidine-2,4-diamine] |  |
| 9.74 | O=S(=O)(NCCN1CCCC1)c1ccc(Nc2nccc(Nc3ccc(O)cc3)n2)cc1 [4-[4-(4-Hydroxy-phenylamino)-pyrimidin-2-ylamino]-N-(2-pyrrolidin-1-yl-ethyl)-benzenesulfonamide] |  |
| 0.13 | COc1cc(Nc2nc(Nc3ccc(N4CCOCC4)cc3)ncc2C)ccc1Cl [N4-(4-Chloro-3-methoxy-phenyl)-5-methyl-N2-(4-morpholin-4-yl-phenyl)-pyrimidine-2,4-diamine] |  |
| 0.0722 | Cc1cnc(Nc2ccc(OCCN3CCCC3)cc2)nc1Nc1cccc(S(N)(=O)=O)c1 [3-{5-Methyl-2-[4-(2-pyrrolidin-1-yl-ethoxy)-phenylamino]-pyrimidin-4-ylamino}-benzenesulfonamide] |  |
| 0.016 | Cc1cnc(Nc2ccc(N3CCN(C)CC3)cc2)nc1Nc1cccc(C)c1C [5-methyl-N4-(2,3-dimethylphenyl)-N2-(4-(4-methylpiperazin-1-yl)phenyl)pyrimidine-2,4-diamine Hydrochloride] |  |
| 0.0353 | COc1cc(Nc2nc(Nc3ccc(-n4cccn4)cc3)ncc2C)ccc1Cl [N4-(4-Chloro-3-methoxy-phenyl)-5-methyl-N2-(4-pyrazol-1-yl-phenyl)-pyrimidine-2,4-diamine trifluoroacetate] |  |
| 0.00846 | Cc1cnc(Nc2ccc(N3CCN(C)CC3)cc2)nc1Nc1cccc(C2CCN(CCO)CC2)c1 [2-[4-(3-{5-Methyl-2-[4-(4-methyl-piperazin-1-yl)-phenylamino]-pyrimidin-4-ylamino}-phenyl)-piperidin-1-yl]-ethanol] |  |
|  | COc1cc(Nc2nc(Nc3ccc(OCCN4CCCC4)cc3)ncc2C)ccc1Cl [Compound 6] | IC50 (Table 6): 0.008 µM; IC50 (Table 7, SAR for the P3 region): 0.008 µM |
| 0.00759 | Cc1cnc(Nc2ccc(N3CCNCC3)cc2)nc1Nc1cccc(S(=O)(=O)NC(C)(C)C)c1 [N-tert-Butyl-3-[5-methyl-2-(4-piperazin-1-yl-phenylamino)-pyrimidin-4-ylamino]-benzenesulfonamide Hydrochloride] |  |
| 0.00706 | Cc1cnc(Nc2cccc(CN3CCOCC3)c2)nc1Nc1cccc(S(=O)(=O)NC(C)(C)C)c1 [N-tert-Butyl-3-(5-methyl-2-(3-morpholin-4-ylmethyl-phenylamino)-pyrimidin-4-ylamino]-benzenesulfonamide] |  |
| 0.0182 | Cc1cnc(Nc2ccc(OCCN3CCCC3)cc2)nc1Nc1ccc(Cl)cc1 [N4-(4-Chloro-phenyl)-5-methyl-N2-[4-(2-pyrrolidin-1-yl-ethoxy)-phenyl]-pyrimidine-2,4-diamine trifluoroacetate] |  |

| IC50 (Table 1) [µM] | SMILES | further results |
| --- | --- | --- |
| 0.0335 | Cc1cnc(Nc2ccc(N3CCN(C)CC3)cc2)nc1Nc1cccc(S(=O)(=O)N2CCCCC2C)c1 (stereo not shown) [5-Methyl-N2-[4-(4-methyl-piperazin-1-yl)-phenyl]-N4-[3-(2-methyl-piperidine-1-sulfony)-phenyl]-pyrimidine-2,4-diamine Hydrochloride] |  |
| 0.0192 | Cc1cnc(Nc2ccc(OCCN3CCCC3)cc2)nc1Nc1cccc2[nH]ccc12 [N2-(4-(2-(pyrrolidin-1-yl)ethoxy)phenyl)-N4-(1H-indol-4-yl)-5-methylpyrimidine-2,4-diamine Hydrochloride] |  |
| 2.04 | COc1cc(Nc2nc(Nc3cccc(OCCN4CCCC4)c3)ncc2C)c(Cl)cc1Cl [drawing 300, N4-(2,4-Dichloro-5-methoxy-phenyl)-5-methyl-N2-[3-(2-pyrrolidin-1-yl-ethoxy)-phenyl]-pyrimidine-2,4-diamine] |  |
| 0.00914 | COc1cc(Nc2nc(Nc3ccc(OCCO)cc3)ncc2C)ccc1Cl [2-{4-[4-(4-Chloro-3-methoxy-phenylamino)-5-methyl-pyrimidin-2-ylamino]-phenoxy}-ethanol] |  |
| 0.0225 | Cc1cnc(Nc2ccc(N3CCNCC3)c(C(F)(F)F)c2)nc1Nc1cccc(S(=O)(=O)NC(C)(C)C)c1 [N-tert-butyl-3-[(5-methyl-2-{[4-piperazin-1-yl-3-(trifluoromethyl)phenyl]amino}pyrimidin-4-yl)amino]benzenesulfonamide] |  |
| 0.0338 | Cc1cnc(Nc2ccc(N3CCN(C)CC3)cc2)nc1Nc1cccc(-n2cccc2)c1 [N4-(3-(1H-pyrrol-1-yl)phenyl)-5-methyl-N2-(4-(4-methylpiperazin-1-yl)phenyl)pyrimidine-2,4-diamine] |  |
| 0.0384 | Cc1cnc(Nc2ccc(-n3ccnc3C)cc2)nc1Nc1cccc(C(C)(C)C)c1 [N4-(3-tert-butylphenyl)-5-methyl-N2-(4-(2-methyl-1H-imidazol-1-yl)phenyl)pyrimidine-2,4-diamine Hydrochloride] |  |
| 0.0133 | COc1cc(Nc2nc(Nc3ccc(CN4CCOCC4)cc3)ncc2C)ccc1Cl [N4-(4-Chloro-3-methoxy-phenyl)-5-methyl-N2-(4-morpholin-4-ylmethyl-phenyl)-pyrimidine-2,4-diamine trifluoroacetate] |  |
| 0.02 | Cc1cnc(Nc2ccc(OCCN3CCCC3)cc2)nc1Nc1cccc2ccccc12 [N2-(4-(2-(pyrrolidin-1-yl)ethoxy)phenyl)-5-methyl-N4-(naphthalen-1-yl)pyrimidine-2,4-diamine Hydrochloride] |  |
| 0.00384 | Cc1cnc(Nc2ccc(N3CCN(C)CC3)cc2)nc1Nc1ccc(C)c2[nH]ccc12 [5-methyl-N4-(7-methyl-1H-indol-4-yl)-N2-(4-(4-methylpiperazin-1-yl)phenyl)pyrimidine-2,4-diamine Hydrochloride] |  |
| 0.00536 | Cc1cnc(Nc2ccc(N3CCN(C)CC3)cc2)nc1Nc1ccc(Cl)c2[nH]ccc12 [drawing 356, N4-(7-chloro-1H-indol-4-yl)-5-methyl-N2-(4-(4-methylpiperazin-1-yl)phenyl)pyrimidine-2,4-diamine] |  |
| 0.0124 | Cc1cc(Nc2nc(Nc3ccc(OCCN4CCCC4)cc3)ncc2C)ccc1Cl [N2-(4-(2-(pyrrolidin-1-yl)ethoxy)phenyl)-N4-(4-chloro-3-methylphenyl)-5-methylpyrimidine-2,4-diamine Hydrochloride] |  |
| 0.00427 | Cc1cnc(Nc2ccc(OC3CCNCC3)cc2)nc1Nc1cccc2[nH]ccc12 [N4-(1H-indol-4-yl)-5-methyl-N2-(4-(piperidin-4-yloxy)phenyl)pyrimidine-2,4-diamine trifluoroacetic acid salt] |  |
| 0.0559 | Cc1cnc(Nc2cccc(-c3nnn[nH]3)c2)nc1Nc1cccc(S(=O)(=O)NC(C)(C)C)c1 [N-tert-Butyl-3-{5-methyl-2-[3-(1H-tetrazol-5-yl)-phenylamino]-pyrimidin-4-ylamino}-benzenesulfonamide] |  |
| 0.0197 | Cc1cnc(Nc2ccc(OCCN3CCCC3)cc2)nc1Nc1cccc(N(C)C)c1 [N4-(3-Dimethylamino-phenyl)-5-methyl-N2-[4-(2-pyrrolidin-1-yl-ethoxy)-phenyl]-pyrimidine-2,4-diamine] |  |
| 0.0394 | Cc1cnc(Nc2ccc(N3CCN(C)CC3)cc2)nc1Nc1cccc(S(=O)(=O)NC2CCCCC2)c1 [N-Cyclohexyl-3-{5-methyl-2-[4-(4-methyl-piperazin-1-yl)-phenylamino)-pyrimidin-4-ylamino}-benzenesulfonamide] |  |
| 0.0398 | Cc1cnc(Nc2ccc(OCCN3CCCC3)cc2)nc1Nc1ccc(C(F)(F)F)cc1 [N2-(4-(2-(pyrrolidin-1-yl)ethoxy)phenyl)-N4-(4-(trifluoromethyl)phenyl)-5-methylpyrimidine-2,4-diamine hydrochloride] |  |
| 0.0486 | Cc1cnc(Nc2ccc(C[N+]3([O-])CCOCC3)cc2)nc1Nc1cccc(S(=O)(=O)NC(C)(C)C)c1 [N-tert-Butyl-3-{5-methyl-2-[4-(4-oxy-morpholin-4-ylmethyl)-phenylamino]-pyrimidin-4-ylamino}-benzenesulfonamide] |  |
| 0.371 | COc1cccc(Nc2ccnc(Nc3ccc(OCCN4CCCC4)cc3)n2)c1C [N4-(3-Methoxy-2-methyl-phenyl)-N2-[4-(2-pyrrolidin-1-yl-ethoxy)-phenyl]-pyrimidine-2,4-diamine] |  |

Reference: patent publication US8604042B2, “Bi-aryl meta-pyrimidine inhibitors of kinases” (TargeGen, Inc., priority 2005, dated 2013)
